# Experiment: physchem
# Format: physicochemical
# Settings: for decomposition: 0.1 M
# Method: FIGS. 24A-24D. Comparison of the stability of DPPEAQ with respect to alkyl chain cleavage to that of 2,6-DBEAQ at pH 14. ^1H NMR spectra (500 MHz, 10 mM NaCH3SO3 internal standard, δ 2.6 ppm) of (A) DPPEAQ at pH 14; (B) DPPEAQ at pH 14, treated for 5.5 days at 95° C. and 0.1 M concentration; (C) 2,6-DBEAQ at pH 14; (D) 2,6-DBEAQ at pH 14, treated for 5.5 days at 95° C. and 0.1 M concentration. […] The relative integrals and splitting of the peaks in the spectra of DPPEAQ after treatment are consistent with the products of (3-hydroxypropyl)phosphonate cleavage. Samples of DPPEAQ at 0.1 M concentration and pH 14 in both the oxidized and reduced form were stored in FEP bottles and heated in an oven at 65° C. for 2 weeks. The extent of decomposition was determined by ^1H NMR, with peak integrals measured relative to an internal standard of NaCH3SO3 prepared at 10 mM concentration in D2O.
# By performing elevated temperature chemical stability studies, we have identified that the cleavage of γ-hydroxybutyrate is involved in the decomposition of the oxidized form of 2,6-DBEAQ (FIGS. 10A-10C and FIGS. 11A-11D), and we have characterized the time course of γ-hydroxybutyrate cleavage at pH 12 and pH 14 and at 0.1 M and 0.5 M concentration (FIG. 12 and FIGS. 13A-13C). […]; these observations are consistent with long redox flow battery lifetime at typical operating cell conditions.
# We designed an analogue of 2,6-DBEAQ but with phosphonate-terminated functional groups, DPPEAQ, appearing to deliver both of these desired outcomes.
# The differing relative stabilities of DPPEAQ and 2,6-DBEAQ at pH 12 (at 95° C. and 0.1 M concentration), in contrast to the similar extent of their observed decomposition at pH 14, may be due to a competition between multiple decomposition mechanisms that vary in a pH-dependent manner. The concentration of hydroxide ions at pH 14 is tenfold higher than the concentration of either molecule at 0.1 M, as opposed to tenfold lower at pH 12. In particular, we propose a hydroxide-mediated nucleophilic substitution reaction (SNAr or SN2) that dominates the decomposition of both molecules at pH 14. However, at a lower pH of 12, an intramolecular reaction with carboxylate acting as the nucleophile dominates in the decomposition of 2,6-DBEAQ, while no analogous intramolecular reaction of DPPEAQ at pH 12 can take place due to much weaker nucleophilicity of bulked phosphonate compared with carboxylate. The difference in the dominant mechanisms of 2,6-DBEAQ decomposition at pH 12 and 14 that we are proposing is also consistent with the observation that the initial rate of degradation is not 100-fold slower at pH 12 relative to pH 14. […] In addition, the operability at lower pH serves to decrease the corrosion of battery systems and enable the use of less expensive materials.
structure (smiles),measurement,setting,value
"O=C([O-])CCCOc1ccc2c(c1)C(=O)c1ccc(OCCCC(=O)[O-])cc1C2=O.[K+].[K+] [2,6-DBEAQ, 4,4′-((9,10-anthraquinone-2,6-diyl)dioxy)dibutyric acid]",half-life,"buffer, room temperature, pH 14, 0.1 M, oxidized form, from elevated temperature studies",~1830 days
same,decomposition,"pH 12, 6 days at 95° C.",15%
same,decomposition,"pH 14, 5.5 days at 95° C.",45%
same,stability of the reduced form,temperatures up to 95° C.,quite stable

# Source: US11724980B2, “Quinones having high capacity retention for use as electrolytes in aqueous redox flow batteries” (President and Fellows of Harvard College, priority 2018, dated 2023)
